According to patent US20240376084A1, “INHIBITORS OF ALPHA-HEMOLYSIN OF STAPHYLOCOCCUS AUREUS” (Helmholtz-Zentrum Fur Infektionsforschung GmbH, priority 2021, published 2024):

Assays:
[1] = target: hemolysin alpha from Staphylococcus aureus (Staphylococcus aureus, UniProt P09616); assay: cell-based
[2] = target: S. aureus Alpha hemolysin (Staphylococcus aureus, UniProt P09616); assay: cell-based; conditions: A549-LDH Assay activity
Sequence of S. aureus Alpha hemolysin (P09616 27-319 limits assumed): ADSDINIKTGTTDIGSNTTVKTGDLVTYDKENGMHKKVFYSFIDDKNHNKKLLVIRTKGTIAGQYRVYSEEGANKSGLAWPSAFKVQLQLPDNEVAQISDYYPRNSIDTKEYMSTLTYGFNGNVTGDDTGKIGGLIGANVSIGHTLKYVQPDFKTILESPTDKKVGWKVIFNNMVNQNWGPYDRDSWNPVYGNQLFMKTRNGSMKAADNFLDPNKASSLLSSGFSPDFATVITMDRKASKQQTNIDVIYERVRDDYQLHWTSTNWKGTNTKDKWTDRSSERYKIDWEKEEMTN

Sequence of hemolysin alpha from Staphylococcus aureus (P09616 27-319 limits assumed): as above

Row | Compound | IC50 [1] | EC50 [2] | EC50 [1]
1 | CCCc1ccc(NS(=O)(=O)c2cc3[nH]c(=O)c(=O)[nH]c3cc2Br)cc1 [Compound 41, 7-bromo-2,3-dioxo-N-(4-propylphenyl)-1,2,3,4-tetrahydroquinoxaline-6-sulfonamide] | 0.03 to 0.1 µM | 0.03 to 0.1 µM | 
2 | Cc1cc2[nH]c(=O)c(=O)[nH]c2cc1S(=O)(=O)Nc1ccc(-c2ccc(OC3CC3)cc2)c(Cl)c1 [Compound 268, N-[3-chloro-4-[4-(cyclopropoxy)phenyl]phenyl]-7-methyl-2,3-dioxo-1,4-dihydroquinoxaline-6-sulfonamide] |  | 0.1 to 1 µM | 0.03 to 0.1 µM
3 | O=c1[nH]c2cc(F)c(S(=O)(=O)Nc3ccc(-c4ccsc4)c(Cl)c3)cc2[nH]c1=O [Compound 82, N-(3-chloro-4-(thiophen-3-yl)phenyl)-7-fluoro-2,3-dioxo-1,2,3,4-tetrahydroquinoxaline-6-sulfonamide] | 0.1 to 1 µM | 1 to 6 µM | 
4 | Cc1cc2[nH]c(=O)c(=O)[nH]c2cc1S(=O)(=O)Nc1ccc(-c2ccc(OC(C)C)nc2)c(Cl)c1 [Compound 291, N-[3-chloro-4-(6-isopropoxy-3-pyridyl)phenyl]-7-methyl-2,3-dioxo-1,4-dihydroquinoxaline-6-sulfonamide] |  | 0.1 to 1 µM | 0.1 to 1 µM
5 | COc1ccccc1-c1c(C)cc(NS(=O)(=O)c2cc3[nH]c(=O)c(=O)[nH]c3cc2C)cc1C [Compound 102, N-(2′-methoxy-2,6-dimethyl-[1,1′-biphenyl]-4-yl)-7-methyl-2,3-dioxo-1,2,3,4-tetrahydroquinoxaline-6-sulfonamide] | 0.1 to 1 µM | 0.03 to 0.1 µM | 
6 | O=c1[nH]c2cc(F)c(S(=O)(=O)Nc3ccc(-c4ccccc4)cc3)cc2[nH]c1=O [Compound 64, N-([1,1′-biphenyl]-4-yl)-7-fluoro-2,3-dioxo-1,2,3,4-tetrahydroquinoxaline-6-sulfonamide] | 0.03 to 0.1 µM | 0.1 to 1 µM | 
7 | Cc1cc2[nH]c(=O)c(=O)[nH]c2cc1S(=O)(=O)Nc1cc(C)c(-c2ccco2)c(C)c1 [Compound 16, N-(4-(furan-2-yl)-3,5-dimethylphenyl)-7-methyl-2,3-dioxo-1,2,3,4-tetrahydroquinoxaline-6-sulfonamide] | < 0.03 µM | < 0.03 µM | 
8 | COc1cc2[nH]c(=O)c(=O)[nH]c2cc1S(=O)(=O)Nc1ccc(C(F)(F)F)cc1 [Compound 400, 7-methoxy-2,3-dioxo-N-[4-(trifluoromethyl)phenyl]-1,4-dihydroquinoxaline-6-sulfonamide] |  | 0.1 to 1 µM | 1 to 3.5 µM
9 | CCc1cc2[nH]c(=O)c(=O)[nH]c2cc1S(=O)(=O)Nc1ccc(OC(F)(F)F)cc1 [Compound 20, 7-ethyl-2,3-dioxo-N-(4-(trifluoromethoxy)phenyl)-1,2,3,4-tetrahydroquinoxaline-6-sulfonamide] | < 0.03 µM | 0.03 to 0.1 µM | 
10 | Cc1cc2[nH]c(=O)c(=O)[nH]c2cc1S(=O)(=O)Nc1ccc(-n2ccnn2)c(Cl)c1 [Compound 264, N-[3-chloro-4-(triazol-1-yl)phenyl]-7-methyl-2,3-dioxo-1,4-dihydroquinoxaline-6-sulfonamide] |  | 0.1 to 1 µM | 0.1 to 1 µM
11 | C#Cc1cc(NS(=O)(=O)c2cc3[nH]c(=O)c(=O)[nH]c3cc2C)ccc1-c1ccccc1 [Compound 252, N-(3-ethynyl-4-phenyl-phenyl)-7-methyl-2,3-dioxo-1,4-dihydroquinoxaline-6-sulfonamide] |  | 0.03 to 0.1 µM | < 0.03 µM
12 | Cc1ccc(-c2ccc(NS(=O)(=O)c3cc4[nH]c(=O)c(=O)[nH]c4cc3C)cc2Cl)cc1C [Compound 266, N-[3-chloro-4-(3,4-dimethylphenyl)phenyl]-7-methyl-2,3-dioxo-1,4-dihydroquinoxaline-6-sulfonamide] |  | 0.1 to 1 µM | 0.1 to 1 µM
13 | Cc1ccc(-c2ccc(NS(=O)(=O)c3cc4[nH]c(=O)c(=O)[nH]c4cc3Cl)cc2Cl)o1 [Compound 146, 7-chloro-N-(3-chloro-4-(5-methylfuran-2-yl)phenyl)-2,3-dioxo-1,2,3,4-tetrahydroquinoxaline-6-sulfonamide] | 0.1 to 1 µM | 1 to 6 µM | 
14 | Cc1cc(NS(=O)(=O)c2cc3[nH]c(=O)c(=O)[nH]c3cc2C)ccc1OC(F)(F)F [Compound 323, 7-methyl-N-[3-methyl-4-(trifluoromethoxy)phenyl]-2,3-dioxo-1,4-dihydroquinoxaline-6-sulfonamide] |  | < 0.03 µM | 0.03 to 0.1 µM
15 | Cc1cc2[nH]c(=O)c(=O)[nH]c2cc1S(=O)(=O)Nc1ccc(-c2ccccc2N(C)C)cc1 [Compound 119, N-(2′-(dimethylamino)-[1,1′-biphenyl]-4-yl)-7-methyl-2,3-dioxo-1,2,3,4-tetrahydroquinoxaline-6-sulfonamide] | 0.1 to 1 µM | 0.1 to 1 µM | 
16 | C#Cc1cc(NS(=O)(=O)c2cc3[nH]c(=O)c(=O)[nH]c3cc2C)ccc1-c1ccc(F)cc1 [Compound 378, N-[3-ethynyl-4-(4-fluorophenyl)phenyl]-7-methyl-2,3-dioxo-1,4-dihydroquinoxaline-6-sulfonamide] |  | < 0.03 µM | < 0.03 µM

Row | Compound | IC50 [1] | EC50 [2] | EC50 [1]
17 | Cc1cc2[nH]c(=O)c(=O)[nH]c2cc1S(=O)(=O)Nc1ccc(-c2cc(F)cc(F)c2)c(Cl)c1 [Compound 309, N-[3-chloro-4-(3,5-difluorophenyl)phenyl]-7-methyl-2,3-dioxo-1,4-dihydroquinoxaline-6-sulfonamide] |  | 0.1 to 1 µM | < 0.03 µM
18 | Cc1cc2[nH]c(=O)c(=O)[nH]c2cc1S(=O)(=O)Nc1ccc(-c2ccc3c(c2)ncn3C)c(Cl)c1 [Compound 283, N-[3-chloro-4-(1-methylbenzimidazol-5-yl)phenyl]-7-methyl-2,3-dioxo-1,4-dihydroquinoxaline-6-sulfonamide] |  | 0.1 to 1 µM | 0.1 to 1 µM
19 | O=c1[nH]c2cc(NCCO)c(S(=O)(=O)Nc3ccc(OC(F)(F)F)cc3)cc2[nH]c1=O [Compound 281, 7-(2-hydroxyethylamino)-2,3-dioxo-N-[4-(trifluoromethoxy)phenyl]-1,4-dihydroquinoxaline-6-sulfonamide] |  | < 0.03 µM | < 0.03 µM
20 | Cc1cc2ccc(-c3ccc(NS(=O)(=O)c4cc5[nH]c(=O)c(=O)[nH]c5cc4C)cc3C(F)(F)F)cc2[nH]1 [Compound 364, 7-methyl-N-[4-(2-methyl-1H-indol-6-yl)-3-(trifluoromethyl)phenyl]-2,3-dioxo-1,4-dihydroquinoxaline-6-sulfonamide] |  | < 0.03 µM | < 0.03 µM
21 | Cc1cc2[nH]c(=O)c(=O)[nH]c2cc1S(=O)(=O)Nc1ccc(-c2ccc(F)c(Cl)c2)c(Cl)c1 [Compound 11, N-(2,3′-dichloro-4′-fluoro-[1,1′-biphenyl]-4-yl)-7-methyl-2,3-dioxo-1,2,3,4-tetrahydroquinoxaline-6-sulfonamide] | < 0.03 µM | 0.1 to 1 µM | 
22 | CCOc1cc2[nH]c(=O)c(=O)[nH]c2cc1S(=O)(=O)Nc1ccc(OC(F)(F)F)cc1 [Compound 278, 7-ethoxy-2,3-dioxo-N-[4-(trifluoromethoxy)phenyl]-1,4-dihydroquinoxaline-6-sulfonamide] |  | < 0.03 µM | 0.1 to 1 µM
23 | CC(C)c1cc2[nH]c(=O)c(=O)[nH]c2cc1S(=O)(=O)Nc1ccc(OC(F)(F)F)cc1 [Compound 31, 7-isopropyl-2,3-dioxo-N-(4-(trifluoromethoxy)phenyl)-1,2,3,4-tetrahydroquinoxaline-6-sulfonamide] | < 0.03 µM | < 0.03 µM | 
24 | O=c1[nH]c2cc(Br)c(S(=O)(=O)Nc3ccc(OC(F)(F)F)cc3)cc2[nH]c1=O [Compound 15, 7-bromo-2,3-dioxo-N-(4-(trifluoromethoxy)phenyl)-1,2,3,4-tetrahydroquinoxaline-6-sulfonamide] | < 0.03 µM | 0.03 to 0.1 µM | 
25 | Cc1cccc(-c2ccc(NS(=O)(=O)c3cc4[nH]c(=O)c(=O)[nH]c4cc3C)cc2Cl)c1 [Compound 23, N-(2-chloro-3′-methyl-[1,1′-biphenyl]-4-yl)-7-methyl-2,3-dioxo-1,2,3,4-tetrahydroquinoxaline-6-sulfonamide] | < 0.03 µM | 0.03 to 0.1 µM | 
26 | Cc1ccccc1-c1ccc(NS(=O)(=O)c2cc3[nH]c(=O)c(=O)[nH]c3cc2C)cc1C [Compound 103, N-(2,2′-dimethyl-[1,1′-biphenyl]-4-yl)-7-methyl-2,3-dioxo-1,2,3,4-tetrahydroquinoxaline-6-sulfonamide] | 0.1 to 1 µM | 0.1 to 1 µM | 
27 | CCCc1ccc(NS(=O)(=O)c2cc3[nH]c(=O)c(=O)[nH]c3cc2F)cc1 [Compound 87, 7-fluoro-2,3-dioxo-N-(4-propylphenyl)-1,2,3,4-tetrahydroquinoxaline-6-sulfonamide] | 0.1 to 1 µM | 0.03 to 0.1 µM | 
28 | Cc1cc2[nH]c(=O)c(=O)[nH]c2cc1S(=O)(=O)Nc1ccc(-c2ccc(NC(=O)N(C)C)cc2)c(Cl)c1 [Compound 332, 3-[4-[2-chloro-4-[(7-methyl-2,3-dioxo-1,4-dihydroquinoxalin-6-yl)sulfonylamino]phenyl]phenyl]-1,1-dimethyl-urea] |  | 0.1 to 1 µM | 0.1 to 1 µM
29 | Cc1cc2[nH]c(=O)c(=O)[nH]c2cc1S(=O)(=O)Nc1ccc(-c2ccc(Cl)cc2)c(Cl)c1 [Compound 8, N-(2,4′-dichloro-[1,1′-biphenyl]-4-yl)-7-methyl-2,3-dioxo-1,2,3,4-tetrahydroquinoxaline-6-sulfonamide] | < 0.03 µM | 0.1 to 1 µM | 
30 | Cc1cc(NS(=O)(=O)c2cc3[nH]c(=O)c(=O)[nH]c3cc2C)ccc1C(F)(F)F [Compound 91, 7-methyl-N-(3-methyl-4-(trifluoromethyl)phenyl)-2,3-dioxo-1,2,3,4-tetrahydroquinoxaline-6-sulfonamide] | 0.1 to 1 µM | 0.1 to 1 µM | 
31 | Cc1cc2[nH]c(=O)c(=O)[nH]c2cc1S(=O)(=O)Nc1ccc(-c2ccccc2CO)c(Cl)c1 [Compound 78, N-(2-chloro-2′-(hydroxymethyl)-[1,1′-biphenyl]-4-yl)-7-methyl-2,3-dioxo-1,2,3,4-tetrahydroquinoxaline-6-sulfonamide] | 0.1 to 1 µM | 0.1 to 1 µM | 
32 | Cc1cc2[nH]c(=O)c(=O)[nH]c2cc1S(=O)(=O)Nc1ccc(C2CCC2)cc1 [Compound 362, N-(4-cyclobutylphenyl)-7-methyl-2,3-dioxo-1,4-dihydroquinoxaline-6-sulfonamide] |  | 0.03 to 0.1 µM | 0.1 to 1 µM
